Measured values taken from US20250129069A1, “TRIAZOLO WRN INHIBITORS” (Nimbus Wadjet, Inc., priority 2023, published 2025).
Where two headings read alike, the source gives them in different places.

Tests used:
[1] = molecular target: human Werner helicase (WRN, amino acids 517-1235 with L1074F point mutation) (Homo sapiens (Human), UniProt Q14191, L1074F); test: WRN (BV08) ADP-Glo assay; format: biochemical; settings: human WRN (aa 517-1235, L1074F), read-out: ADP-Glo_hWRN_IC50
How it was run: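 ADP-Glo luminescence read after 60 min, 25 °C reaction of 0.15 nM WRN (517-1235, L1074F, Sf9-expressed, tag removed) with 0.1 nM DNA duplex and 5 μM ATP, following 15 min compound preincubation; 20 mM Bicine pH 7.5, 1% DMSO. IC50 from 3- or 4-parameter fit of % inhibition.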

[2] = tested on: p21 induction in HCT 116 cells; test: p21 induction in cells (In-Cell Western, p21/GAPDH ratio); format: cell-based; settings: 24 h compound incubation, read-out: p21_EC50
How it was run: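 EC50 values come from nonlinear fits of percent activation, defined by the 800/700 nm p21-to-GAPDH ratio scaled between DMSO (low) and internal WRN inhibitor (high) controls. In-Cell Western read after 24 h compound exposure of HCT 116 cells at 37° C. Duplicate 11-point series, 2-fold steps, usually starting at 10 μM.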

Chain of human Werner helicase (WRN, amino acids 517-1235 with L1074F point mutation) (Q14191 other isoform, or with tags, fused parts or gaps L1074F (already in the parent)): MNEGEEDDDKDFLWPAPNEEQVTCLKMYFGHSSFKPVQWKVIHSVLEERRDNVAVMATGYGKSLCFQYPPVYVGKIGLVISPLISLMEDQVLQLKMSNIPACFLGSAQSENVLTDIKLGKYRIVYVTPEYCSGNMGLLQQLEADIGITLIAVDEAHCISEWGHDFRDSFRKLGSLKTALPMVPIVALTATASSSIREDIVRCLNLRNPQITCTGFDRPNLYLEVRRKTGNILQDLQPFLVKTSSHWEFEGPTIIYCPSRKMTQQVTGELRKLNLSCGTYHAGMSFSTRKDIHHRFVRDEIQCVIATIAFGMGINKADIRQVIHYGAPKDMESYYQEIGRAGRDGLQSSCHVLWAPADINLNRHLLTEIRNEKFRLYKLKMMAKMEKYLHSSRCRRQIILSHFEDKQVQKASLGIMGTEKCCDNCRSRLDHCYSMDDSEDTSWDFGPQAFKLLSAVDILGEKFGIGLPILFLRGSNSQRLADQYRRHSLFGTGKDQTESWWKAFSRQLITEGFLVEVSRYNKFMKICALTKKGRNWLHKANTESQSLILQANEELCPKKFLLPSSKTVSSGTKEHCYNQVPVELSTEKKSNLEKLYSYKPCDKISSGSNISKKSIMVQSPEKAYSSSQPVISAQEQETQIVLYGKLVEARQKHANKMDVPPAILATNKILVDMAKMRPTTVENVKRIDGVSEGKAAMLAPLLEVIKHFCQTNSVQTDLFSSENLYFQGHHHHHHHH

Compound `CCc1c(N2CCN(C(=O)c3ncnc(C)c3O)CC2)c(=O)c2nn(-c3ccnc(OC)c3)nc2n1CC(=O)NC12CC(C(F)(F)F)(C1)C2` [Compound I-151, 2-{5-ethyl-6-[4-(5-hydroxy-6-methylpyrimidine-4-carbonyl)piperazin-1-yl]-2-(2-methoxypyridin-4-yl)-7-oxo-2H,4H,7H-[1,2,3]triazolo[4,5-b]pyridin-4-yl}-N-[3-(trifluoromethyl)bicyclo[1.1.1]pentan-1-yl]acetamide] has an IC50 [1] of 5 to 50 nM and an EC50 ([2]; Homo sapiens) of 500 to 2000 nM.

In the case of `CCc1c(N2CCN(C(=O)c3ncnc(C)c3O)CC2)c(=O)c2nn(-c3ccncc3)nc2n1CC(=O)Nc1ccc(C(F)(F)F)cc1Cl` [Compound I-147, N-[2-chloro-4-(trifluoromethyl)phenyl]-2-{5-ethyl-6-[4-(5-hydroxy-6-methylpyrimidine-4-carbonyl)piperazin-1-yl]-7-oxo-2-(pyridin-4-yl)-2H,4H,7H-[1,2,3]triazolo[4,5-b]pyridin-4-yl}acetamide], the IC50 [1] is reported as at most 5 nM and the EC50 ([2]; Homo sapiens) is reported as at most 500 nM.

`CCc1c(N2CCN(C(=O)c3ncnc(C)c3O)[C@H]3CC[C@@H]32)c(=O)c2nn(-c3ccnc(OC)c3)nc2n1CC(=O)Nc1ccc(C(F)(F)F)cc1F` [Compound I-126, 2-{5-ethyl-6-[(1S,6S)-5-(5-hydroxy-6-methylpyrimidine-4-carbonyl)-2,5-diazabicyclo[4.2.0]octan-2-yl]-2-(2-methoxypyridin-4-yl)-7-oxo-2H,4H,7H-[1,2,3]triazolo[4,5-b]pyridin-4-yl}-N-[2-fluoro-4-(trifluoromethyl)phenyl]acetamide] was tested, and the IC50 [1] was at most 5 nM and the EC50 ([2]; Homo sapiens) was at most 500 nM.

`CCc1c(N2CCN(C(=O)c3c(OC(F)F)ncc(C)c3O)CC2)c(=O)c2nn(-c3ccnc(OC)c3)nc2n1CC(=O)NC12CC(C(C)C)(C1)C2` [Compound I-56, 2-(6-{4-[2-(difluoromethoxy)-4-hydroxy-5-methylpyridine-3-carbonyl]piperazin-1-yl}-5-ethyl-2-(2-methoxypyridin-4-yl)-7-oxo-2H,4H,7H-[1,2,3]triazolo[4,5-b]pyridin-4-yl)-N-[3-(propan-2-yl)bicyclo[1.1.1]pentan-1-yl]acetamide] showed an IC50 [1] of 5 to 50 nM and an EC50 ([2]; Homo sapiens) of at most 500 nM.

For `CCc1c(N2CCN(C(=O)c3ncnc(C)c3O)[C@H]3CC[C@@H]32)c(=O)c2nn(-c3ccnc(OC)c3)nc2n1CC(=O)NC1(C)CC2(CCC2)C1` [Compound I-87, 2-{5-ethyl-6-[(1S,6S)-5-(5-hydroxy-6-methylpyrimidine-4-carbonyl)-2,5-diazabicyclo[4.2.0]octan-2-yl]-2-(2-methoxypyridin-4-yl)-7-oxo-2H,4H,7H-[1,2,3]triazolo[4,5-b]pyridin-4-yl}-N-{2-methylspiro[3.3]heptan-2-yl}acetamide], the IC50 [1] was 5 to 50 nM and the EC50 ([2]; Homo sapiens) was at most 500 nM.

In the case of `CCc1c(N2CCN(C(=O)c3c(OC)ncc(C)c3O)[C@H]3CC[C@@H]32)c(=O)c2nn(C3=CCOCC3)nc2n1CC(=O)NC12CC(C(C)C)(C1)C2` [Compound I-24, 2-(2-(3,6-dihydro-2H-pyran-4-yl)-5-ethyl-6-((1S,6S)-5-(4-hydroxy-2-methoxy-5-methylnicotinoyl)-2,5-diazabicyclo[4.2.0]octan-2-yl)-7-oxo-2,7-dihydro-4H-[1,2,3]triazolo[4,5-b]pyridin-4-yl)-N-(3-isopropylbicyclo[1.1.1]pentan-1-yl)acetamide], the IC50 [1] is reported as 5 to 50 nM and the EC50 ([2]; Homo sapiens) is reported as at most 500 nM.

In the case of `CCc1c(N2CCN(C(=O)c3ncnc(C)c3O)[C@H]3CC[C@@H]32)c(=O)c2nn(-c3ccccn3)nc2n1CC(=O)NC12CC(C(C)C)(C1)C2` [Compound I-22, 2-(5-ethyl-6-((1S,6S)-5-(5-hydroxy-6-methylpyrimidine-4-carbonyl)-2,5-diazabicyclo[4.2.0]octan-2-yl)-7-oxo-2-(pyridin-2-yl)-2,7-dihydro-4H-[1,2,3]triazolo[4,5-b]pyridin-4-yl)-N-(3-isopropylbicyclo[1.1.1]pentan-1-yl)acetamide], the IC50 [1] is reported as 5 to 50 nM and the EC50 ([2]; Homo sapiens) is reported as at most 500 nM.

Work on `CCc1c(N2CCN(C(=O)c3ncncc3OC)[C@H]3CC[C@@H]32)c(=O)c2nn(C3=CCOCC3)nc2n1CC(=O)NC12CC(C(C)C)(C1)C2` [Compound I-167, 2-[2-(3,6-dihydro-2H-pyran-4-yl)-5-ethyl-6-[(1S,6S)-5-(5-methoxypyrimidine-4-carbonyl)-2,5-diazabicyclo[4.2.0]octan-2-yl]-7-oxo-2H,4H,7H-[1,2,3]triazolo[4,5-b]pyridin-4-yl]-N-[3-(propan-2-yl)bicyclo[1.1.1]pentan-1-yl]acetamide] yielded an IC50 [1] of 5 to 50 nM and an EC50 ([2]; Homo sapiens) of 500 to 2000 nM.

`CCc1c(N2CCN(C(=O)c3ncnc(C)c3O)CC2)c(=O)c2nn(C3=CCOCC3)nc2n1CC(=O)Nc1ccc(C(F)(F)F)cc1Cl` [Compound I-144, N-[2-chloro-4-(trifluoromethyl)phenyl]-2-[2-(3,6-dihydro-2H-pyran-4-yl)-5-ethyl-6-[4-(5-hydroxy-6-methylpyrimidine-4-carbonyl)piperazin-1-yl]-7-oxo-2H,4H,7H-[1,2,3]triazolo[4,5-b]pyridin-4-yl]acetamide] gave an IC50 [1] of 5 to 50 nM and an EC50 ([2]; Homo sapiens) of at most 500 nM.

With `CCc1c(N2CCN(C(=O)c3c(OC)ncc(OC)c3O)CC2)c(=O)c2nn(-c3ccnc(OC)c3)nc2n1CC(=O)NC12CC(C(C)C)(C1)C2` [Compound I-64, 2-{5-ethyl-6-[4-(4-hydroxy-2,5-dimethoxypyridine-3-carbonyl)piperazin-1-yl]-2-(2-methoxypyridin-4-yl)-7-oxo-2H,4H,7H-[1,2,3]triazolo[4,5-b]pyridin-4-yl}-N-[3-(propan-2-yl)bicyclo[1.1.1]pentan-1-yl]acetamide] the IC50 [1] was 5 to 50 nM and the EC50 ([2]; Homo sapiens) was at most 500 nM.

`CCc1c(N2CCN(C(=O)c3cccc4ncoc34)[C@H]3CC[C@@H]32)c(=O)c2nn(C3=CCOCC3)nc2n1CC(=O)Nc1ccc(C(F)(F)F)cc1Cl` [Compound I-115, 2-{6-[(1S,6S)-5-(1,3-benzoxazole-7-carbonyl)-2,5-diazabicyclo[4.2.0]octan-2-yl]-2-(3,6-dihydro-2H-pyran-4-yl)-5-ethyl-7-oxo-2H,4H,7H-[1,2,3]triazolo[4,5-b]pyridin-4-yl}-N-[2-chloro-4-(trifluoromethyl)phenyl]acetamide] showed an IC50 [1] of 5 to 50 nM and an EC50 ([2]; Homo sapiens) of at most 500 nM.

Work on `CCc1c(N2CCN(C(=O)c3c(OC)ncc(C)c3O)[C@H]3CC[C@@H]32)c(=O)c2nn(-c3ccnc(OC)c3)nc2n1CC(=O)NC12CC(C(C)C)(C1)C2` [Compound I-116, 2-{5-ethyl-6-[(1S,6S)-5-(4-hydroxy-2-methoxy-5-methylpyridine-3-carbonyl)-2,5-diazabicyclo[4.2.0]octan-2-yl]-2-(2-methoxypyridin-4-yl)-7-oxo-2H,4H,7H-[1,2,3]triazolo[4,5-b]pyridin-4-yl}-N-[3-(propan-2-yl)bicyclo[1.1.1]pentan-1-yl]acetamide] yielded an IC50 [1] of 5 to 50 nM and an EC50 ([2]; Homo sapiens) of at most 500 nM.

`CCc1c(N2CCN(C(=O)c3cccc4ncoc34)[C@H]3CC[C@@H]32)c(=O)c2nn(-c3ccnc(OC)c3)nc2n1CC(=O)NC12CC(C(C)C)(C1)C2` [Compound I-108, 2-{6-[(1S,6S)-5-(1,3-benzoxazole-7-carbonyl)-2,5-diazabicyclo[4.2.0]octan-2-yl]-5-ethyl-2-(2-methoxypyridin-4-yl)-7-oxo-2H,4H,7H-[1,2,3]triazolo[4,5-b]pyridin-4-yl}-N-[3-(propan-2-yl)bicyclo[1.1.1]pentan-1-yl]acetamide] showed an IC50 [1] of 5 to 50 nM and an EC50 ([2]; Homo sapiens) of 500 to 2000 nM.

Compound `CCc1c(N2CCN(C(=O)c3ncnc(C)c3O)[C@H]3CC[C@@H]32)c(=O)c2nn(-c3cc(C)n(C)n3)nc2n1CC(=O)NC1CC2(CCC2)C1` [Compound I-36, 2-[2-(1,5-dimethyl-1H-pyrazol-3-yl)-5-ethyl-6-[(1S,6S)-5-(5-hydroxy-6-methylpyrimidine-4-carbonyl)-2,5-diazabicyclo[4.2.0]octan-2-yl]-7-oxo-2H,4H,7H-[1,2,3]triazolo[4,5-b]pyridin-4-yl]-N-{spiro[3.3]heptan-2-yl}acetamide] has an IC50 [1] of 5 to 50 nM and an EC50 ([2]; Homo sapiens) of at most 500 nM.

In the case of `CCc1c(N2CCN(C(=O)c3c(Oc4cnn(C)c4)ncc(C)c3O)CC2)c(=O)c2nn(-c3ccnc(OC)c3)nc2n1CC(=O)NC12CC(C(C)C)(C1)C2` [Compound I-63, 2-[5-ethyl-6-(4-{4-hydroxy-5-methyl-2-[(1-methyl-1H-pyrazol-4-yl)oxy]pyridine-3-carbonyl}piperazin-1-yl)-2-(2-methoxypyridin-4-yl)-7-oxo-2H,4H,7H-[1,2,3]triazolo[4,5-b]pyridin-4-yl]-N-[3-(propan-2-yl)bicyclo[1.1.1]pentan-1-yl]acetamide], the IC50 [1] is reported as 5 to 50 nM and the EC50 ([2]; Homo sapiens) is reported as at most 500 nM.

`CCc1c(N2CCN(C(=O)c3c(OC)ncc(C)c3O)[C@H]3CC[C@@H]32)c(=O)c2nn(C3=CCOCC3)nc2n1CC(=O)NC12CC(C(C)C)(C1)C2` [Compound I-92, 2-[2-(3,6-dihydro-2H-pyran-4-yl)-5-ethyl-6-[(1S,6S)-5-(4-hydroxy-2-methoxy-5-methylpyridine-3-carbonyl)-2,5-diazabicyclo[4.2.0]octan-2-yl]-7-oxo-2H,4H,7H-[1,2,3]triazolo[4,5-b]pyridin-4-yl]-N-[3-(propan-2-yl)bicyclo[1.1.1]pentan-1-yl]acetamide] showed an IC50 [1] of 5 to 50 nM and an EC50 [2] of at most 500 nM.

For `CCc1c(N2CCN(C(=O)c3ncnc(C)c3O)[C@H]3CC[C@@H]32)c(=O)c2nn(-c3ccc(OC)nc3)nc2n1CC(=O)NC12CC(C(C)C)(C1)C2` [Compound I-156, 2-{5-ethyl-6-[(1S,6S)-5-(5-hydroxy-6-methylpyrimidine-4-carbonyl)-2,5-diazabicyclo[4.2.0]octan-2-yl]-2-(6-methoxypyridin-3-yl)-7-oxo-2H,4H,7H-[1,2,3]triazolo[4,5-b]pyridin-4-yl}-N-[3-(propan-2-yl)bicyclo[1.1.1]pentan-1-yl]acetamide], the IC50 [1] was 5 to 50 nM and the EC50 ([2]; Homo sapiens) was at most 500 nM.
